Patent US11072602B2, “Antidiabetic heterocyclic compounds” (Merck Sharp & Dohme Corp., priority 2016, dated 2021)
pEC50: −log10 of the molar value.

Key:
human GPR40 [1] = target: T1, human GPR40 (Homo sapiens, UniProt O14842); experiment: Inositol Phosphate Turnover (IP1) Assay 2; type: cell-based; details: for EC50: HEK cells stably expressing human GPR40, 15,000 cells per well, CisBio IP-One kit, read-out: Human IP1 (nM), Inositol Phophate Turnover (IP1) Assay 2 EC50 values; for pEC50: HEK cells stably expressing human GPR40, read-out: EC50 values in the Inositol Phophate Turnover (IP1) Assay 2
T1 construct: expressed in transfected cells
T1 sequence (O14842 whole entry): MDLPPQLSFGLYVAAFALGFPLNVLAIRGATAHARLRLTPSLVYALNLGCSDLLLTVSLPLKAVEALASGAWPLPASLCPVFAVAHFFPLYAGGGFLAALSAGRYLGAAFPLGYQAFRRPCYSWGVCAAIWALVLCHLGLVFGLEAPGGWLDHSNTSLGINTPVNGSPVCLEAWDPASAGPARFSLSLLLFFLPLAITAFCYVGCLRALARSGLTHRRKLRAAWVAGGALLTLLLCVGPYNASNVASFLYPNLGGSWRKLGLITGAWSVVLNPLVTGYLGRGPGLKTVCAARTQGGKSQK
Experimental: (§1) Human GPR40 stable cell-lines were generated in HEK cells. The expression plasmids were transfected using lipofectamine (Life Technologies) following manufacturer's instructions. Stable cell-lines were generated following drug selection and single cell cloning.
The assay is performed in 384-well format. HEK cells stably expressing human GPR40 are plated at 15,000 cells per well in growth medium (DMEM/10% fetal calf serum). Cell plates are then incubated 16 hours at 37 degrees in a 5% CO2 incubator.
Measurement of Inositol Phosphate Turnover (IP1) is performed using the CisBio IP-One kit (Part number 62IPAPEB). After the 16 hour incubation, the cells are washed with HEPES buffer and 10 ul of stimulation buffer (prepared as described in the kit) is added to each well. In a separate plate, compounds are diluted in DMSO (400-fold over the final concentration in the assay well) and 25 nl is acoustically transferred to the appropriate well in the assay cell plate. The plates are then incubated for 60 minutes at 37 degrees. 10 ul of detection buffer (also prepared as described in the IP-One kit) is added to each well and the plates are incubated for 60 minutes in the dark. The plates are then read in a Perkin Elmer EnVision or equivalent reader able to measure FRET. Fluorescent ratio of emission at 665 and 620 nm is then converted to IP1 concentration by back calculating from an IP1 standard curve prepared at the time of the assay.

human GPR40 [2] = target: T1, human GPR40; experiment: Inositol Phosphate Turnover (IP1) Assay; type: cell-based; details: HEK cells stably expressing human GPR40, 7500 cells per well, CisBio IP-One kit
Experimental: as §1
The assay was performed in 384-well format. HEK cells stably expressing human GPR40 were plated at 7500 cells per well in growth medium (DMEM/10% fetal calf serum). Cell plates were then incubated 16 hours at 37 degrees in a 5% CO2 incubator. Measurement of Inositol Phosphate Turnover (IP1) was performed using the CisBio IP-One kit (Part number 62IPAPEB). After the 16 hour incubation, the growth media was removed by centrifugation using the BlueWasher (AusWasher GUI Ver. v1.0.1.8) Protocol #21-“Light Dry” and 10 ul of stimulation buffer (prepared as described in the kit) was added to each well. In a separate plate, compounds were diluted in DMSO (200-fold over the final concentration in the assay well) and 50 nl was acoustically transferred to the appropriate well in the assay cell plate. The plates were then incubated for 60 minutes at 37 degrees in a 5% CO2 incubator. 10 ul of detection buffer (also prepared as described in the IP-One kit) was added to each well and the plates were incubated at room temperature for 60 minutes in the dark. The plates were then read in a Perkin Elmer EnVision or equivalent reader able to measure FRET. Fluorescent ratio of emission at 665 and 620 nm was then converted to IP1 concentration by back calculating from an IP1 standard curve prepared at the time of the assay. Data was normalized to % activity using a reference compound and EC50s determined using a standard 4-parameter fit.

| EC50 (human GPR40 [1]) | pEC50 (human GPR40 [1]) | pEC50 (human GPR40 [2]) | Structure (SMILES) |
| --- | --- | --- | --- |
| 141 nM | > 5.19 | – | C[C@H](C(=O)O)[C@H](c1ccc2c(c1)OC(C1CC3(C1)CN(c1ncccc1C(F)(F)F)C3)CC2)C1CC1 (single isomer, unassigned) [Example 1, (2S,3R)-3-cyclopropyl-2-methyl-3-((R or S)-2-(2-(3-(trifluoro-methyl)pyridin-2-yl)-2-azaspiro[3.3]heptan-6-yl)chroman-7-yl)propanoic Acid] |
| 156 nM | – | – | C[C@H](C(=O)O)[C@H](c1ccc2c(c1)OC(C1CC3(C1)CN(c1ncccc1C(F)(F)F)C3)CC2)C1CC1 (single isomer, unassigned) [Example 2, (2S,3R)-3-cyclopropyl-2-methyl-3-((R or S)-2-(2-(3-(trifluoromethyl)pyridin-2-yl)-2-azaspiro[3.3]heptan-6-yl)chroman-7-yl)propanoic Acid] |
| – | – | 7.15 | CC(c1cc(F)ccc1OC(F)(F)F)N1CC2CC1CC2C1CCc2ccc([C@H](C3CC3)[C@H](C)C(=O)O)cc2O1 (single isomer, unassigned) [Example 37, (2S,3R)-3-cyclopropyl-3-((R or S)-2-((R or S,R or S)-2-((RS)-1-(5-fluoro-2-(trifluoro-methoxy)-phenyl)ethyl)-2-aza-bicyclo[2.2.1]heptan-5-yl)-chroman-7-yl)-2-methyl-propanoic acid] |
| – | – | 7.22 | C[C@H](C(=O)O)[C@H](c1ccc2c(c1)OC(C13CCN([C@H](C)c4cc(F)ccc4OC(F)(F)F)C(C1)C3)CC2)C1CC1 (single isomer, unassigned) [Example 43] |
| – | – | 8.67 | C[C@H](C(=O)O)[C@H](c1ccc2c(c1)OC(C13CCN([C@H](C)c4cc(F)ccc4OC(F)(F)F)C(C1)C3)CC2)C1CC1 (single isomer, unassigned) [Example 44] |
| – | – | 7.69 | C[C@H](C(=O)O)[C@H](c1ccc2c(c1)OC(C1C3COCC1CN([C@H](C)c1cc(C(F)(F)F)ccc1C(F)(F)F)C3)CC2)C1CC1 (stereo partly drawn) [Example 3, (2S,3R)-3-(2-((1R,5S)-7-((R)-1-(2,5-bis(trifluoromethyl)phenyl)ethyl)-3-oxa-7-azabicyclo[3.3.1]nonan-9-yl)chroman-7-yl)-3-cyclopropyl-2-methylpropanoic acid] |
| – | – | 7.44 | C[C@H](C(=O)O)[C@H](c1ccc2c(c1)OC(C1C3COCC1CN([C@H](C)c1cc(C(F)(F)F)ccc1C(F)(F)F)C3)CC2)C1CC1 (stereo partly drawn) [Example 4, (2S,3R)-3-(2-((1R,5S)-7-((R)-1-(2,5-bis(trifluoromethyl)phenyl)ethyl)-3-oxa-7-azabicyclo[3.3.1]nonan-9-yl)chroman-7-yl)-3-cyclopropyl-2-methylpropanoic acid] |
| – | – | 7.47 | C[C@H](C(=O)O)[C@H](c1ccc2c(c1)OC(C1C3COCC1CN([C@@H](C)c1cc(C(F)(F)F)ccc1C(F)(F)F)C3)CC2)C1CC1 (stereo partly drawn) [Example 5, (2S,3R)-3-(2-((1R,5S)-7-((S)-1-(2,5-bis(trifluoro-methyl)phenyl)ethyl)-3-oxa-7-azabicyclo[3.3.1]-nonan-9-yl)chroman-7-yl)-3-cyclopropyl-2-methyl-propanoic acid] |
| – | – | 7.67 | C[C@H](C(=O)O)[C@H](c1ccc2c(c1)OC(C1C3COCC1CN([C@@H](C)c1cc(C(F)(F)F)ccc1C(F)(F)F)C3)CC2)C1CC1 (stereo partly drawn) [Example 6, (2S,3R)-3-(2-((1R,5S)-7-((S)-1-(2,5-bis(trifluoro-methyl)phenyl)ethyl)-3-oxa-7-azabicyclo[3.3.1]-nonan-9-yl)chroman-7-yl)-3-cyclopropyl-2-methyl-propanoic acid] |
| – | – | 8.89 | C[C@H](C(=O)O)[C@H](c1ccc2c(c1)OC(C1C[C@@H]3C[C@@H]1CN3[C@@H](C)c1cc(C(F)(F)F)ccc1C(F)(F)F)CC2)C1CC1 (stereo partly drawn) [Example 16, (2S,3R)-3-(2-((1S,4S)-2-((S)-1-(2,5-bis(trifluoromethyl)phenyl)ethyl)-2-aza-bicyclo-[2.2.1]heptan-5-yl)chroman-7-yl)-3-cyclopropyl-2-methylpropanoic Acid] |
| – | – | 9.16 | C[C@H](C(=O)O)[C@H](c1ccc2c(c1)OC(C1CC3CC1CN3[C@H](C)c1cc(C(F)(F)F)ccc1C(F)(F)F)CC2)C1CC1 (stereo partly drawn) [Example 17, (2S,3R)-3-(2-((1S,4S)-2-((R)-1-(2,5-bis(trifluoromethyl)-phenyl)ethyl)-2-azabicyclo-[2.2.1]heptan-5-yl)chroman-7-yl)-3-cyclopropyl-2-methyl-propanic acid] |
| – | – | 8.38 | C[C@H](C(=O)O)[C@H](c1ccc2c(c1)OC(C1CC3CC1CN3[C@@H](C)c1cc(F)ccc1C(F)(F)F)CC2)C1CC1 (stereo partly drawn) [Example 18, (2S,3R)-3-cyclopropyl-3-(2-((1S,4S)-2-((S)-1-(5-fluoro-2-(trifluoromethyl)phenyl)ethyl)-2-azabicyclo[2.2.1]heptan-5-yl)chroman-7-yl)-2-methyl-propanoic acid] |
| – | – | 8.58 | C[C@H](C(=O)O)[C@H](c1ccc2c(c1)OC(C1CC3CC1CN3[C@@H](C)c1cc(F)ccc1C(F)(F)F)CC2)C1CC1 (stereo partly drawn) [Example 19, (2S,3R)-3-cyclopropyl-3-(2-((1S,4S)-2-((S)-1-(5-fluoro-2-(trifluoromethyl)phenyl)ethyl)-2-azabicyclo[2.2.1]heptan-5-yl)chroman-7-yl)-2-methyl-propanic acid] |
| – | – | 7.98 | C[C@H](C(=O)O)[C@H](c1ccc2c(c1)OC(C1CC3C[C@@H]1CN3[C@@H](C)c1cc(F)ccc1C(F)(F)F)CC2)C1CC1 (stereo partly drawn) [Example 38, (2S,3R)-3-cyclopropyl-3-(2-((4S)-2-((S)-1-(5-fluoro-2-(trifluoromethyl)phenyl)ethyl)-2-azabicyclo[2.2.1]heptan-5-yl)chroman-7-yl)-2-methyl-propanoic acid] |
| 38.5 nM | > 5.19 | – | C[C@H](C(=O)O)[C@H](c1ccc2c(c1)OC(C1[C@@H]3COC[C@H]1CN(Cc1cc(C(F)(F)F)ccc1C(F)(F)F)C3)CC2)C1CC1 (stereo partly drawn) [Example 40, (2S,3R)-3-(2-((1R,5S)-7-(2,5-bis(trifluoromethyl)benzyl)-3-oxa-7-azabicyclo[3.3.1]nonan-9-yl)chroman-7-yl)-3-cyclopropyl-2-methylpropanoic acid] |
| – | – | 8.68 | C[C@H](C(=O)O)[C@H](c1ccc2c(c1)OC(C13CCN([C@@H](C)c4cc(F)ccc4OC(F)(F)F)C(C1)C3)CC2)C1CC1 (stereo partly drawn) [Example 42] |

| Structure (SMILES) | EC50 (human GPR40 [1]) | pEC50 (human GPR40 [1]) | pEC50 (human GPR40 [2]) |
| --- | --- | --- | --- |
| C[C@H](C(=O)O)[C@H](c1ccc2c(c1)OC(C1CC3CCC(C1)N3[C@@H](C)c1cc(C(F)(F)F)ccc1C(F)(F)F)CC2)C1CC1 (stereo partly drawn) [Example 13, (2S,3R)-3-(2-((1R5S)-8-((S)-1-(2,5-bis(trifluoromethyl)phenyl)ethyl)-8-azabicyclo[3.2.1]octan-3-yl)chroman-7-yl)-3-cyclopropyl-2-methylpropanoic Acid] | – | – | 7.93 |
| C[C@H](C(=O)O)[C@H](c1ccc2c(c1)OC(C1CC3CCC(C1)N3[C@H](C)c1cc(C(F)(F)F)ccc1C(F)(F)F)CC2)C1CC1 (stereo partly drawn) [Example 14, (2S,3R)-3-(2-((1R,5S)-8-((R)-1-(2,5-bis(trifluoro-methyl)phenyl)ethyl)-8-azabicyclo[3.2.1]octan-3-yl)chroman-7-yl)-3-cyclopropyl-2-methyl-propanoic acid] | – | – | 7.96 |
| C[C@H](C(=O)O)[C@H](c1ccc2c(c1)OC(C1CC3CCC(C1)N3[C@H](C)c1cc(F)ccc1C(F)(F)F)CC2)C1CC1 (stereo partly drawn) [Example 15, (2S,3R)-3-cyclopropyl-3-(2-((1R,5S)-8-((R)-1-(5-fluoro-2-(trifluoromethyl)-phenyl)ethyl)-8-aza-bicyclo[3.2.1]octan-3-yl)chroman-7-yl)-2-methylpropanoic acid] | – | – | 7.76 |
